Laboratory results from US11174268B2, “Benzenesulfonamide compouds and their use as therapeutic agents” (Xenon Pharmaceuticals Inc., priority 2016, dated 2021).
Where a name gives a salt, the structure may show the parent alone.

Key:
NaV1.6 = NaV1.6 (Homo sapiens (Human), UniProt Q9UQD0); experiment: Sodium Influx Assay (Flux), NaV1.6; assay type: cell-based; settings: Trex HEK293 cells, ANG2 dye, inactivated state;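 also: Tetracycline-induced cells, compounds applied for one hour at room temperature with modulators holding channels open, IC50 from percent inhibition of sodium influx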
NaV1.5 = NaV1.5 (Homo sapiens (Human), UniProt Q14524); experiment: Sodium Influx Assay (Flux), NaV1.5; settings: read-out: Flux NaV1.5 IC50; Trex HEK293 cells, ANG2 dye, inactivated state
NaV1.1 = NaV1.1 (Homo sapiens (Human), UniProt P35498); experiment: Sodium Influx Assay (Flux), NaV1.1; assay type: cell-based; settings: Trex HEK293 cells, ANG2 dye, inactivated state;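 also: channels co-expressed with human β1 subunit and held open by modulators, cells exposed to compounds for one hour at room temperature, IC50 from percent inhibition of influx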

Sequence of NaV1.5 (Q14524 other isoform, or with tags, fused parts or gaps): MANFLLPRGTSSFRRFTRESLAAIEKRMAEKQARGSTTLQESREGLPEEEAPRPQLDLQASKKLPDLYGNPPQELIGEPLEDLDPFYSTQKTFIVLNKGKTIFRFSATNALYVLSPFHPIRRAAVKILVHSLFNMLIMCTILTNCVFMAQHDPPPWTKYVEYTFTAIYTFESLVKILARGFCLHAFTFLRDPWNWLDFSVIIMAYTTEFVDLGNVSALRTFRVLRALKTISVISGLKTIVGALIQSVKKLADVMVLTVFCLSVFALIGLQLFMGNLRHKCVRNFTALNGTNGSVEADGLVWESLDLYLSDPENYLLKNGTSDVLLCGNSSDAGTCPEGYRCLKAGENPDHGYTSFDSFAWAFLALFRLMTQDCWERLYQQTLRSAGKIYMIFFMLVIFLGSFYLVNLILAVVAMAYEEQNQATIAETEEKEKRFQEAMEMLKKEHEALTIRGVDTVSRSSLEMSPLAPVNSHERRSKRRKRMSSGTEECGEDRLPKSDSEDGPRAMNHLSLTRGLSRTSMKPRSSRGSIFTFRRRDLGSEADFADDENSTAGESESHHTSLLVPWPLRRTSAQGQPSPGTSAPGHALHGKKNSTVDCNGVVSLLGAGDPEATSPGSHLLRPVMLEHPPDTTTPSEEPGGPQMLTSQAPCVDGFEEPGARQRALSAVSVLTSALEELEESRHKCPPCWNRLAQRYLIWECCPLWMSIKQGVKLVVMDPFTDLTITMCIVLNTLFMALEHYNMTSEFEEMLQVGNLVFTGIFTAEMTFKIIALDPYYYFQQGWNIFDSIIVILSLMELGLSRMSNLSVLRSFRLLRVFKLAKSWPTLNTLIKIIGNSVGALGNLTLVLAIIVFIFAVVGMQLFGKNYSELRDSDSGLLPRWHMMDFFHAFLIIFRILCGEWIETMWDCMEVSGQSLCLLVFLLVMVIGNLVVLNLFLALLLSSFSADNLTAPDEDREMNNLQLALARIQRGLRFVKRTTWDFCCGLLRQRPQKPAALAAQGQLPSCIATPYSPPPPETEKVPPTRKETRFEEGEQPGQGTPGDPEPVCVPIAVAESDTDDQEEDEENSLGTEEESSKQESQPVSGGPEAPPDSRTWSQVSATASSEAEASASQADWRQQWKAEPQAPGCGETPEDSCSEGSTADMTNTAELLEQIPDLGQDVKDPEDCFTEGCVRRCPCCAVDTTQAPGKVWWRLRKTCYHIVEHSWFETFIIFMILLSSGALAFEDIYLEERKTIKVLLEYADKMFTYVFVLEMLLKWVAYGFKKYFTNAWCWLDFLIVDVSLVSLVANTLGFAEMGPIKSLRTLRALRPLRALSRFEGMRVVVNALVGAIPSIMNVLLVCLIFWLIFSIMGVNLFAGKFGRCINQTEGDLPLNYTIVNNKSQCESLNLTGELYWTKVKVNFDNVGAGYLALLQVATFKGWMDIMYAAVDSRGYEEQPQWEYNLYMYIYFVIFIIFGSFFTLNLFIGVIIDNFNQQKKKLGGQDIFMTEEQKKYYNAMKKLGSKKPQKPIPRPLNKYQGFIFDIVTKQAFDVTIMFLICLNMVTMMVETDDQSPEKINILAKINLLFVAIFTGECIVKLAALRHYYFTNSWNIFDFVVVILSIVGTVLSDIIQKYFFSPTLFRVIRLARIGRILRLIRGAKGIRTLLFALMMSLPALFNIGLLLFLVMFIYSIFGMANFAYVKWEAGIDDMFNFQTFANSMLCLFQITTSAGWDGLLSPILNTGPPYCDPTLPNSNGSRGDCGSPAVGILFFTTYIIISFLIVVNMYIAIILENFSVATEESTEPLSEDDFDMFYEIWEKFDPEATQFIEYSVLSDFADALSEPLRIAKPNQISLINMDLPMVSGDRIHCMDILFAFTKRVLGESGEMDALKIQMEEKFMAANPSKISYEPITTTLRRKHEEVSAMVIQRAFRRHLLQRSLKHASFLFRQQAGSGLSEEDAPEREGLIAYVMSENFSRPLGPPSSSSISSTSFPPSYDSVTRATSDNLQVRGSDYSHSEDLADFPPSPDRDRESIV

| Compound | IC50 (NaV1.6) | IC50 (NaV1.5) | IC50 (NaV1.1) |
| --- | --- | --- | --- |
| C[C@H](Nc1cc(F)c(S(=O)(=O)Nc2cscn2)cc1Cl)c1cc(OC2COC2)ccc1F [Example 235, (S)-5-chloro-2-fluoro-4-((1-(2-fluoro-5-(oxetan-3-yloxy)phenyl)ethyl)amino)-N-(thiazol-4-yl)benzenesulfonamide] | 3.02 µM | 30 µM | 22.4 µM |
| C[C@H](Nc1cc(F)c(S(=O)(=O)Nc2cscn2)cc1Cl)c1cc(OCC2COC2)ccc1F [Example 236, (S)-5-chloro-2-fluoro-4-((1-(2-fluoro-5-(oxetan-3-ylmethoxy)phenyl)ethyl)amino)-N-(thiazol-4-yl)benzenesulfonamide] | 3.02 µM | 30 µM | 30 µM |
| C[C@H](Nc1cc(F)c(S(=O)(=O)Nc2cscn2)cc1Cl)c1cc(OCC2(C)COC2)ccc1F [Example 237, (S)-5-chloro-2-fluoro-4-((1-(2-fluoro-5-((3-methyloxetan-3-yl)methoxy)phenyl)ethyl)amino)-N-(thiazol-4-yl)benzenesulfonamide] | 3.54 µM | 30 µM | 12.5 µM |
| C[C@H](Nc1ccc(S(=O)(=O)Nc2cscn2)cc1C#N)c1ccccc1F [Example 239, (S)-3-cyano-4-((1-(2-fluorophenyl)ethyl)amino)-N-(thiazol-4-yl)benzenesulfonamide] | 1.65 µM | 28.9 µM | 27 µM |
| C[C@H](Nc1cc(F)c(S(=O)(=O)Nc2ccon2)c(F)c1)c1cc(F)ccc1F [Example 240, (S)-4-((1-(2,5-difluorophenyl)ethyl)amino)-2,6-difluoro-N-(isoxazol-3-yl)benzenesulfonamide] | 3.17 µM | 30 µM | 30 µM |
| O=S(=O)(Nc1ccncn1)c1cc(Cl)c(NC2(c3cc(F)ccc3F)CC2)cc1F [Example 241, 5-chloro-4-((1-(2,5-difluorophenyl)cyclopropyl)amino)-2-fluoro-N-(pyrimidin-4-yl)benzenesulfonamide] | 2.36 µM | 30 µM | 26.8 µM |
| O=S(=O)(Nc1ccncn1)c1cc(Cl)c(NC2(c3ccccc3F)CC2)cc1F [Example 242, 5-chloro-2-fluoro-4-((1-(2-fluorophenyl)cyclopropyl)amino)-N-(pyrimidin-4-yl)benzenesulfonamide] | 1.95 µM | 30 µM | 30 µM |
| Cc1cc(NS(=O)(=O)c2cc(Cl)c(N[C@@H](C)c3ccccc3Cl)cc2F)ncn1 [Example 244, (S)-5-chloro-4-((1-(2-chlorophenyl)ethyl)amino)-2-fluoro-N-(6-methylpyrimidin-4-yl)benzenesulfonamide] | 4.28 µM | 22.2 µM | 30 µM |
| C[C@H](Nc1cc(F)c(S(=O)(=O)Nc2ccnc(C(F)(F)F)n2)cc1Cl)c1ccccc1Cl [Example 245, (S)-5-chloro-4-((1-(2-chlorophenyl)ethyl)amino)-2-fluoro-N-(2-(trifluoromethyl)pyrimidin-4-yl)benzenesulfonamide] | 5.38 µM | 6.55 µM | 10.5 µM |
| COC1CN(Cc2cccc(F)c2CNc2cc(F)c(S(=O)(=O)Nc3cscn3)cc2Cl)C1 [Example 248, 5-chloro-2-fluoro-4-((2-fluoro-6-((3-methoxyazetidin-1-yl)methyl)benzyl)amino)-N-(thiazol-4-yl)benzenesulfonamide 2,2,2-trifluoroacetate] | 0.431 µM | 26.5 µM | 21.4 µM |
| CN(C)Cc1cccc(F)c1CNc1cc(F)c(S(=O)(=O)Nc2cscn2)cc1Cl [Example 249, 5-chloro-4-((2-((dimethylamino)methyl)-6-fluorobenzyl)amino)-2-fluoro-N-(thiazol-4-yl)benzenesulfonamide 2,2,2-trifluoroacetate] | 0.163 µM | 30 µM | 30 µM |
| O=S(=O)(Nc1cscn1)c1cc(Cl)c(NCc2c(F)cccc2CN2CCOCC2)cc1F [Example 250, 5-chloro-2-fluoro-4-((2-fluoro-6-(morpholinomethyl)benzyl)amino)-N-(thiazol-4-yl)benzenesulfonamide] | 9.06 µM | 30 µM | 23.6 µM |
| O=S(=O)(Nc1cscn1)c1cc(Cl)c(NCc2c(F)cccc2CN2CCC(F)(F)CC2)cc1F [Example 251, 5-chloro-4-((2-((4,4-difluoropiperidin-1-yl)methyl)-6-fluorobenzyl)amino)-2-fluoro-N-(thiazol-4-yl)benzenesulfonamide] | 3.71 µM | 3.35 µM | 8.68 µM |
| O=S(=O)(Nc1cscn1)c1c(F)cc(NCc2c(F)cccc2CN2CC3(CCC3)C2)cc1F [Example 252, 4-((2-((2-azaspiro[3.3]heptan-2-yl)methyl)-6-fluorobenzyl)amino)-2,6-difluoro-N-(thiazol-4-yl)benzenesulfonamide formate] | 0.036 µM | 12.6 µM | 9.96 µM |
| C[C@H](Nc1cc(F)c(S(=O)(=O)Nc2cscn2)cc1Cl)c1cccc(CN(C)C)c1 [Example 253, (S)-5-chloro-4-((1-(3-((dimethylamino)methyl)phenyl)ethyl)amino)-2-fluoro-N-(thiazol-4-yl)benzenesulfonamide formate] | 2.1 µM | 13.1 µM | 20 µM |
| C[C@@H](Nc1cc(F)c(S(=O)(=O)Nc2cscn2)cc1Cl)c1cccc(CN(C)C)c1 [Example 254, (R)-5-chloro-4-((1-(3-((dimethylamino)methyl)phenyl)ethyl)amino)-2-fluoro-N-(thiazol-4-yl)benzenesulfonamide formate] | 9.44 µM | 3.62 µM | 14.1 µM |
| C[C@H](Nc1cc(F)c(S(=O)(=O)Nc2cscn2)cc1Cl)c1cc(CN2CCCCC2)ccc1F [Example 256, (S)-5-chloro-2-fluoro-4-((1-(2-fluoro-5-(piperidin-1-ylmethyl)phenyl)ethyl)amino)-N-(thiazol-4-yl)benzenesulfonamide formate] | 1.22 µM | 6.97 µM | 8.82 µM |
| O=S(=O)(Nc1ccon1)c1cc(Cl)c(NCc2ccccc2CN2CCC2)cc1F [Example 258, 4-((2-(azetidin-1-ylmethyl)benzyl)amino)-5-chloro-2-fluoro-N-(isoxazol-3-yl)benzenesulfonamide] | 3.69 µM | 30 µM | 30 µM |
| O=S(=O)(Nc1ccon1)c1c(F)cc(NCc2ccccc2CN2CCC2)cc1F [Example 259, 4-((2-(azetidin-1-ylmethyl)benzyl)amino)-2,6-difluoro-N-(isoxazol-3-yl)benzenesulfonamide] | 1.37 µM | 30 µM | 29.2 µM |
| O=S(=O)(Nc1cccnn1)c1cc(Cl)c(NCc2c(F)cccc2CN2CCC2)cc1F [Example 260, 4-((2-(azetidin-1-ylmethyl)-6-fluorobenzyl)amino)-5-chloro-2-fluoro-N-(pyridazin-3-yl)benzenesulfonamide] | 1.88 µM | 30 µM | 30 µM |
| O=S(=O)(Nc1cscn1)c1cc(Cl)c(NCc2ccccc2CCN2CCC2)cc1F [Example 261, 4-((2-(2-(azetidin-1-yl)ethyl)benzyl)amino)-5-chloro-2-fluoro-N-(thiazol-4-yl)benzenesulfonamide formate] | 0.146 µM | 26.3 µM | 28.9 µM |
| O=S(=O)(Nc1cscn1)c1cc(Cl)c(NCc2cc(CCN3CCC3)ccc2F)cc1F [Example 262, 4-((5-(2-(azetidin-1-yl)ethyl)-2-fluorobenzyl)amino)-5-chloro-2-fluoro-N-(thiazol-4-yl)benzenesulfonamide formate] | 1.42 µM | 7.32 µM | 8.29 µM |
| O=S(=O)(Nc1cscn1)c1cc(Cl)c(NCc2cc(CCN3CC(F)C3)ccc2F)cc1F [Example 263, 5-chloro-2-fluoro-4-((2-fluoro-5-(2-(3-fluoroazetidin-1-yl)ethyl)benzyl)amino)-N-(thiazol-4-yl)benzenesulfonamide formate] | 1.02 µM | 4.78 µM | 7.71 µM |
| O=S(=O)(Nc1cscn1)c1cc(Cl)c(N[C@H]2C[C@H](N3CCC3)c3ccccc32)cc1F [Example 264, 4-(((1S,3S)-3-(azetidin-1-yl)-2,3-dihydro-1H-inden-1-yl)amino)-5-chloro-2-fluoro-N-(thiazol-4-yl)benzenesulfonamide formate] | 30 µM | 30 µM | 30 µM |
| C[C@H](Nc1cc(F)c(S(=O)(=O)Nc2ncc(Cl)s2)cc1Cl)c1ccccc1F [Example 267, (S)-5-chloro-2-fluoro-4-((1-(2-fluorophenyl)ethyl)amino)-N-(5-chlorothiazol-2-yl)benzenesulfonamide] | 0.959 µM | 6.96 µM | 3.58 µM |
| Cc1cc(N[C@@H](C)c2ccccc2F)c(Cl)cc1S(=O)(=O)Nc1nccs1 [Example 269, (S)-5-chloro-4-((1-(2-fluorophenyl)ethyl)amino)-2-methyl-N-(thiazol-2-yl)benzenesulfonamide] | 0.584 µM | 6.72 µM | 2.78 µM |
| CN(C)Cc1ccccc1CNc1cc(F)c(S(=O)(=O)Nc2cscn2)c(F)c1 [Example 271, 4-((2-((dimethylamino)methyl)benzyl)amino)-2,6-difluoro-N-(thiazol-4-yl)benzenesulfonamide] | 0.448 µM | 30 µM | 30 µM |
| CC[C@H](Nc1cc(F)c(S(=O)(=O)Nc2ccncn2)c(F)c1)c1cc(F)ccc1Cl [Example 276, (S)-4-((1-(2-chloro-5-fluorophenyl)propyl)amino)-2,6-difluoro-N-(pyrimidin-4-yl)benzenesulfonamide] | 0.265 µM | 24.3 µM | 3.6 µM |
| C[C@@H](c1cccc(F)c1CNc1cc(F)c(S(=O)(=O)Nc2cscn2)c(F)c1)N1CCC1 [Example 278, (S)-4-((2-(1-(azetidin-1-yl)ethyl)-6-fluorobenzyl)amino)-2,6-difluoro-N-(thiazol-4-yl)benzenesulfonamide formate] | 0.187 µM | 30 µM | 14.2 µM |
